“And” between values parts separate entries of the source, which are not always exact repeats. Equal values may be shown once.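 A five-concentration, 48-hour dose response in 96-well plates underlies each endpoint, interpolated linearly between surrounding concentrations. GI50 = concentration required for 50% inhibition of growth. TGI: concentration producing complete growth inhibition.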
Columns and labels:
Experiment in all cases: NCI tumour cell line growth inhibition, 48 h
DLD-1 colon = tested on: DLD-1 colon
DMS 273 small cell lung = tested on: DMS 273 small cell lung
HOP-18 NSCLC = tested on: HOP-18 NSCLC
LXFL 529 NSCLC = tested on: LXFL 529 NSCLC
M19-MEL melanoma = tested on: M19-MEL melanoma
RXF-631 renal = tested on: RXF-631 renal
SNB-78 CNS = tested on: SNB-78 CNS
XF 498 CNS = tested on: XF 498 CNS
MDA-N = tested on: MDA-N
P388 leukemia = tested on: P388 leukemia
P388/ADR leukemia = tested on: P388/ADR leukemia
SN12K1 renal = tested on: SN12K1 renal

Row | SMILES | TGI (DLD-1 colon) [µM] | TGI (DMS 273 small cell lung) [µM] | TGI (HOP-18 NSCLC) [µM] | TGI (LXFL 529 NSCLC) [µM] | TGI (M19-MEL melanoma) [µM] | TGI (RXF-631 renal) [µM] | TGI (SNB-78 CNS) [µM] | TGI (XF 498 CNS) [µM] | TGI (MDA-N) | further results
1 | CN(c1ccccc1)c1c(Cl)c(=O)oc2c1ccc1occc12 | > 100 | > 100 | > 100 | > 100 | > 100 | > 100 | > 100 | – | – | –
2 | CCOC(=O)C1(C)CCCCC(=O)N1 (stereo unspecified) | > 100 | > 100 | > 100 | > 100 | > 100 | > 100 | > 100 | > 100 | – | –
3 | O=P(O)(O)C1(P(=O)(O)O)CC1 | – | > 100 | – | > 100 | > 100 | – | > 100 | > 100 | – | –
4 | CSc1ccc2c(c1)C(N1CCN(C)CC1)Cc1ccccc1S2 (stereo unspecified) | – | – | – | – | – | – | – | – | 12.1 µM | –
5 | COc1cc(CCc2ccc(N)cc2)cc(OC)c1OC | > 100 | > 100 | > 100 | > 100 | > 100 | > 100 | 85 | > 100 | – | –
6 | CCCCCCC[CH2][Sn]1([CH2]CCCCCCC)[O]C(=O)c2cccnc2[O]1 | > 100 | > 100 | – | > 100 | > 100 | > 100 | > 100 | > 100 | – | GI50 (DLD-1 colon): > 100 µM; GI50 (DMS 273 small cell lung): > 100 µM; GI50 (LXFL 529 NSCLC): > 100 µM; GI50 (M19-MEL melanoma): > 100 µM; GI50 (RXF-631 renal): > 100 µM; GI50 (SNB-78 CNS): > 100 µM; GI50 (XF 498 CNS): 42.3 µM
7 | ClC(Cl)[Si]12OCCN(CCO1)CCO2 | > 100 | > 100 | > 100 | > 100 | – | > 100 | > 100 | – | – | –
8 | CCSc1c2ccccc2c(-c2nc(F)nc(F)n2)n1CCc1ccccc1 | – | > 100 | – | > 100 | > 100 | > 100 | > 100 | > 100 | – | –
9 | CCOC(=O)COc1ccc2c(C)cc(=O)oc2c1 | – | – | – | – | – | – | – | – | > 100 µM | –
10 | C[C@]12CCC3[C@@H](CC[C@@H]4c5nonc5CC[C@]34C)C1CC[C@@H]2O (stereo partly specified) | 69.4 | 60.8 | > 100 | > 100 | > 100 | > 100 | > 100 | 53.7 | – | –
11 | CSC(=Nc1ccccc1)/N=C(\SCc1ccccc1)N(C)C | – | 2.57 | 2.1 | 1.79 | 3.36 | 3.12 | 4.16 | 2.66 | 2.03 µM | –
12 | Nc1ncnc2c1ncn2C1OC(CO)C(O)C1N (stereo unspecified) | – | – | – | – | – | – | – | – | > 100 µM | –
13 | COc1cccc(-c2cc(=O)c3ccccc3[nH]2)c1 | > 100 | > 100 | > 100 | > 100 | > 100 | – | – | 72.3 | – | –
14 | Cc1ccc(S(=O)(=O)NC(CN)C(=O)O)cc1 (stereo unspecified) | – | – | – | – | – | – | – | – | > 100 µM | –
15 | Nc1c(Cl)ncnc1NCCCNc1ncnc(Cl)c1N | > 100 | > 100 | > 100 | > 100 | > 100 | – | > 100 | > 100 | – | –
16 | CN(C)C(=S)SCC(=O)Nc1ccccc1 | – | – | – | – | – | – | – | – | > 100 µM | –
17 | CC1=C(C(=O)Nc2ccc(Cl)c(C(=O)OC(C)C)c2)SCCO1 | > 79.4 | 73.1 | > 100 | – | 75.5 | – | > 100 | > 91.3 | – | TGI (P388 leukemia): 54.2 µM; TGI (P388/ADR leukemia): 46.4 µM; TGI (SN12K1 renal): 63.1 µM
18 | Cc1ccc(S(=O)(=O)N/N=C(/c2nc3ccc([N+](=O)[O-])cc3[nH]c2=O)C(O)c2ccc(C(O)/C(=N\NS(=O)(=O)c3ccc(C)cc3)c3nc4ccc([N+](=O)[O-])cc4[nH]c3=O)cc2)cc1 (stereo unspecified) | > 100 | > 100 | – | > 100 | – | > 100 | > 100 | > 100 | – | –

Row | SMILES | TGI (DLD-1 colon) [µM] | TGI (DMS 273 small cell lung) [µM] | TGI (HOP-18 NSCLC) [µM] | TGI (LXFL 529 NSCLC) [µM] | TGI (M19-MEL melanoma) [µM] | TGI (RXF-631 renal) [µM] | TGI (SNB-78 CNS) [µM] | TGI (XF 498 CNS) [µM] | TGI (MDA-N) | further results
19 | Nc1ncnc2c1ncn2C1CC(OCc2ccccc2[N+](=O)[O-])C(CO)O1 (stereo unspecified) | > 50 | > 50 | > 50 | > 50 | 48.5 | – | > 50 | > 50 | – | –
20 | NS(=O)(=O)OCCCCCCCOS(N)(=O)=O | 1540 | 454 | 2350 | – | 1300 | – | 2020 | 112 | 1210 µM | TGI (P388 leukemia): 1300 µM; TGI (P388/ADR leukemia): 2060 µM; TGI (SN12K1 renal): 605 µM
21 | c1ccc2c(c1)cc1n2CC2CN=NC12 (stereo unspecified) | > 100 | > 100 | – | > 100 | > 100 | > 100 | > 100 | – | – | –
22 | CCCCCCCCCCCCCC[C@@H](O)[C@H]1CC[C@H]([C@H]2CC[C@H]([C@H](O)CCCCCC[C@@H](O)CC3=C[C@H](C)OC3=O)O2)O1 | – | – | – | – | – | – | – | – | 6.48 µM and > 25 µM | GI50 (MDA-N): > 25 µM
23 | O=c1[nH]cnc2c1nnn2CCCCCCCCCCCCn1nnc2c(=O)[nH]cnc21 | > 100 | > 100 | > 100 | > 100 | > 100 | – | 48 | – | > 100 µM | –
24 | O=S(=O)(c1cnccc1N1CCN(CCO)CC1)N1CCCC1 | – | – | – | – | – | – | – | – | > 100 µM | –
25 | COC(=O)C=Cc1ccc2nncnc2c1 (mixture of isomers) | – | – | – | – | – | – | – | – | 46.1 µM | –
26 | CC(=O)[O][Hg][c]1c(C)c(C)cc(C)c1C | – | – | – | – | – | – | – | – | 2.08 µM | GI50 (MDA-N): 0.83 µM
27 | CC1=C(C(=O)Nc2cc(F)c(F)cc2F)C(c2ccc([N+](=O)[O-])cc2)C(C(=O)Nc2cc(F)c(F)cc2F)=C(C)N1 | > 100 | – | – | > 100 | > 100 | – | > 100 | – | – | –
28 | Cn1nc(-c2ccccc2)c2c(/C=C/c3ccccc3)onc2c1=O | > 100 | – | > 100 | > 100 | > 100 | > 100 | > 100 | 72.4 | – | –
29 | CC(=O)C1=C(O)C2C3c4c[nH]c5cccc(c45)CC3C(C)(C)N2C1=O (stereo unspecified) | > 100 | > 100 | 75.8 | > 100 | > 100 | – | > 100 | > 100 | – | –
30 | C=C1C(=O)OC2/C=C(/C)C(OC(C)=O)C/C=C(\C)C(OC(=O)C3(C)OC3C)C(O)C12 (stereo unspecified) | – | – | – | – | – | – | – | – | > 100 µM | –
31 | CCOc1ccc(NC(=O)CC2C(=O)Nc3ccccc3S2(=O)=O)cc1 (stereo unspecified) | > 100 | – | > 100 | > 100 | > 100 | > 100 | > 100 | > 100 | – | –
32 | CCc1nc(N)nc(N)c1-c1ccc(N2CCNCC2)cc1 | – | – | – | – | – | – | – | – | > 100 µM | –
33 | CC(=O)OC1COC(n2c(=S)n(-c3ccccc3)c(=O)c3ccccc32)C(OC(C)=O)C1OC(C)=O (stereo unspecified) | > 100 | > 100 | > 100 | > 100 | – | > 100 | > 100 | > 100 | – | –
34 | C=CCc1cc(OC)c2c(c1)C(OC)CC(c1ccc(OC)c(OC)c1)O2 (stereo unspecified) | > 100 | > 100 | – | > 100 | > 100 | > 100 | > 100 | > 100 | – | –
35 | CC1(C)C(=O)C(C)(C)C1=S | > 100 | > 100 | – | > 100 | > 100 | – | – | > 100 | – | –
36 | CN1c2ccccc2N(C(=O)c2ccccc2)C(CC(=O)O)c2cccn21 (stereo unspecified) | – | > 100 | > 100 | > 100 | > 100 | > 100 | – | > 100 | – | –

Reference: PubChem BioAssay (NCI)
